Experimental findings from patent EP3052475B1, “PHARMACEUTICAL USE OF 3-BENZYLSULFONYLPROPIONITRILE” (Olatec Therapeutics LLC, priority 2013, dated 2015) are described below.

The subject of experiment [1] is tail flick reaction to heat. Put plainly: tail flick test in mice (49°C water bath). Type of experiment: in vivo. Here is the method: The tail flick test is a test of the pain response in animals. The tail flick test is used in basic pain research and to measure the effectiveness of analgesics, by observing the tail flick reaction to heat in an animal. This test assesses the nociceptive response to a local pain stimulus, and the ability of a drug to inhibit this response. […] The test compound was administered at a dosage of 500 mg/kg in DMSO. […] Each group had 10 mice. The response of mice to heat stimulus was evaluated by measuring the time of tail-flick or tail-flick latency from 49°C water bath. Briefly, the animal was held with its tail hanging down. Approximately 2 inches of the tail was immersed in a beaker of water at 38±1 °C for about 30 seconds, and this was done twice to acclimate the animal to the procedure. Subsequently, approximately 2 inches of the tail was immersed in a beaker of water at 49±1°C, at which point a timer was started. […] An ANOVA was done, and if p<0.05, a Dunnett's t test was employed to calculate significant difference between vehicle control and test compound treated groups. […] Results of tail flick response from each group are calculated as mean ± SEM (standard error of mean).
(Hot-plate and tail-flick tests time the reaction to a heat stimulus.)

For experiment [2], the system named is arachidonic acid-induced ear swelling. Put plainly: topical arachidonic acid-induced ear swelling model in mice. The note with it: inhibition of ear swelling vs vehicle, measured at 90 minutes after arachidonic acid application; topical application 30 min before and 15 min after arachidonic acid; indomethacin 14 mM (0.1 mg/20 µL, n=5), test compound 375 mM (1.0 mg/20 µL, n=10); P <0.001. Type of experiment: in vivo, Male ICR mice. Here is the method:
3-Benzylsulfonylpropionitrile, prepared from Example 1, was used in this experiment.
The test compound, indomethacin (positive control), and vehicle were evaluated for anti-inflammatory activity in a topical arachidonic acid-induced ear swelling model in mice.
Male ICR mice weighing 22 ± 2 g were used and randomly divided; the test compound and vehicle control had 10 mice, and indomethacin had 5 mice. Arachidonic Acid (0.5 mg in 20 µl of acetone:ethanol/1:1) was applied topically to the anterior and posterior surfaces of the right ear of each mice. Test substances and vehicle, as listed in Table 1 were similarly applied 30 min before and 15 min after arachidonic acid application. The thickness of the right ear and the left ear was measured and the difference calculated as an indication of the inflammation in the right ear. Ear swelling was measured by a Dyer model micrometer gauge at 60 and 90 minutes after arachidonic acid application as an index of inflammation. Percent inhibition was calculated according to the formula: Ic - It/Ic x 100, where Ic and It refers to increase of ear thickness (mm) in control and treated mice, respectively. ANOVA and Dunnett's test were employed to ascertain significant difference between vehicle control and treated groups. Significance is set at P<0.05 level.

As usually defined, the % Inhibition is the relative decrease from the control value, in per cent. Read a low % Inhibition as a response near the control.

Each structure is given as a SMILES string.

For the molecule `N#CCCS(=O)(=O)Cc1ccccc1` [3-Benzylsulfonylpropionitrile, 3-benzylsulfonylpropionitrile], the “tail flick latency compared with vehicle-treated mice” value in experiment [1] (500 mg/kg in DMSO, oral gavage, measured at 30, 60 and 120 minutes post dosing, n=10, significance p<0.05) was “statistically significant tail flick latency at 30, 60, and 120 minutes”. Besides, in experiment [2], the “% Inhibition” value was found to be 35%.
In the case of `CN1CC[C@]23c4c5ccc(O)c4O[C@H]2[C@@H](O)C=C[C@H]3[C@H]1C5` [morphine, reference compound], in experiment [1] (mouse, in vivo), the “tail flick latency compared with vehicle-treated mice” value was “statistically significant tail flick latency at 30 and 60 minutes, but not 120 minutes”.
